Among the data in US10131679B2, “Substituted dihydropyrrolopyrazole compound” (UBE INDUSTRIES, LTD., priority 2014, dated 2018) are Ki, inhibition in vivo and IC50 values, retold here.

pIC50, pKi: −log10 of the molar value.

One experiment concerns the target T1, CDK2 (Homo sapiens, UniProt P24941).
T1 construct: purchased Invitrogen Corp. PV3267
As to the kind of experiment: CDK2 enzyme inhibition test. The experiment is classed as biochemical. Conditions: Ki=IC50/(1+S/Km); 33P bound to MBP, [γ-33P]ATP, 30° C. for 20 minutes; read-out: Ki value of CDK2 inhibitory activity. In short, it runs like this:
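Commercial CDK2 with MBP substrate and [γ-33P]ATP (500 μM solution, before mixing) in HEPES pH 7.4 buffer with DTT, Triton X-100 and MgCl2; 20 min at 30 °C. TCA-precipitated 33P-MBP counted by liquid scintillation; IC50 from inhibition of 33P incorporation, Ki = IC50/(1+S/Km).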

The test system of experiment [1] is mouse imiquimod-induced psoriasis model. Kind of experiment: Ear thickening suppression test using mouse imiquimod-induced psoriasis model. It is filed as in vivo. Conditions: topical, 120 h, application of a 0.01% methanol solution for 4 days, thickness measured on day 5, BALB/c mice, read-out: rate of inhibition of increase in right auricle thickness. In short, it runs like this: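 Female BALB/c mice received test compound topically or orally, then 5 mg imiquimod cream (5%) on the right auricle 60 minutes later, daily for 4 days. Ear thickness was measured on day 5. Inhibition (%) of thickening was calculated relative to the solvent group, taken as 100%.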

Experiment [2] relates to human large intestine cancer cell line (HCT-116). Kind of experiment: Human large intestine cancer (HCT-116) cell growth inhibition test. Conditions: 72 h, HCT-116, culture for 3 days, sulforhodamine B absorbance. The experiment is classed as cell-based. An outline of the steps:
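HCT-116 cells seeded at 1.0×10^3 cells/well in McCoy's 5a with 10% FBS, then exposed to compound (0.1% DMSO final) for 3 days. Growth measured by sulforhodamine B absorbance; IC50 derived from concentration-inhibition data.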

As usually defined, the pKi is −log10 of the Ki, conventionally taken in molar units. Usually pIC50 stands for the negative decadic logarithm of the IC50, by convention in mol/L. Low values mean a high IC50, high ones a low IC50. In the case of `CC1(C)c2[nH]nc(NC(=O)C3([Si](C)(C)C)CCC3)c2CN1C(=O)N[C@H](CC1(O)CC1)c1ccccc1` [IV-743, (R)—N-[2-(1-Hydroxycyclopropyl)-1-phenylethyl]-6,6-dimethyl-3-[1-(trimethylsilyl)cyclobutanecarboxamido]-4,6-dihydropyrrolo[3,4-c]pyrazole-5(1H)-carboxamide], the pKi at CDK2 was at most 6.00. Besides, in experiment [1], the inhibition in vivo at 0.01 % is at least 50%. The compound also gave a pIC50 in experiment [2] of at least 6.30.
